Values quoted from earlier work as cited in patent US20110039787A1, “COMPOSITIONS, KITS AND METHODS FOR TREATING BENIGN PROSTATE HYPERPLASIA” (priority 2009, published 2011).

Test system: BPH
Settings: cited from earlier work

Compound | IPSS change (maximum of known medicinal treatments, FIG. 2) (AUA Guideline on the Management of BPH (2006), historical comparison) | Maximum reduction in mean IPSS (preliminary study, European Urology 54 (2008) 170-180)
CCOc1ccccc1OCCN[C@H](C)Cc1ccc(OC)c(S(N)(=O)=O)c1 [Tamsulosin] | approximately −7.5 | 
cetrorelix glucoronate |  | −5.4 to −5.9
